The source of these data is US20240109900A1, “AZABICYCLIC SHP2 INHIBITORS” (IRBM S.P.A., priority 2021, published 2024).

The subject of experiment [1] is ERK phosphorylation in KYSE-520 cells. Nature of the experiment: Phospho-ERK cellular assay. In kind it is cell-based. To be noted: KYSE-520 cells, 2 h at 37° C., phospho-ERK1/2 (Thr202/Tyr204) TR-FRET, read-out: PERK IC50. The essentials: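 TR-FRET read-out of ERK1/2 Thr202/Tyr204 phosphorylation was taken after overnight antibody incubation at room temperature. Before that, KYSE-520 cells were treated 2 h at 37 °C with compound dilutions and lysed 30 min. Percent inhibition relative to vehicle and cell-free wells was fitted four-parametrically to give IC50.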
For orientation: Time-resolved FRET reads energy transfer from a long-lived donor to a nearby acceptor.

The target of experiment [2] is SHP-2 enzyme (Met1-Leu525) (Homo sapiens (Human), UniProt Q06124). Nature of the experiment: SHP2 inhibition enzymatic assay. In kind it is biochemical. To be noted: 0.5 nM SHP-2 activated by 500 nM IRS1 peptide, 75 μM DiFMUP substrate; read-out: SHP2wt-IC50. The essentials:
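SHP-2 (Met1-Leu525), 0.5 nM, activated with 500 nM IRS1 bis-phosphopeptide, preincubated 30 min with compounds in HEPES pH 7.2 buffer with 5 mM DTT. 75 μM DiFMUP added for 30 min at room temperature, stopped with bpV; fluorescence read. IC50 from four-parameter logistic fit of % inhibition.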

A word on the IC50: it is the concentration at which inhibition is half-maximal.

Where two headings read alike, the source gives them in different places.

Chain of SHP-2 enzyme (Met1-Leu525) (Q06124 1-525): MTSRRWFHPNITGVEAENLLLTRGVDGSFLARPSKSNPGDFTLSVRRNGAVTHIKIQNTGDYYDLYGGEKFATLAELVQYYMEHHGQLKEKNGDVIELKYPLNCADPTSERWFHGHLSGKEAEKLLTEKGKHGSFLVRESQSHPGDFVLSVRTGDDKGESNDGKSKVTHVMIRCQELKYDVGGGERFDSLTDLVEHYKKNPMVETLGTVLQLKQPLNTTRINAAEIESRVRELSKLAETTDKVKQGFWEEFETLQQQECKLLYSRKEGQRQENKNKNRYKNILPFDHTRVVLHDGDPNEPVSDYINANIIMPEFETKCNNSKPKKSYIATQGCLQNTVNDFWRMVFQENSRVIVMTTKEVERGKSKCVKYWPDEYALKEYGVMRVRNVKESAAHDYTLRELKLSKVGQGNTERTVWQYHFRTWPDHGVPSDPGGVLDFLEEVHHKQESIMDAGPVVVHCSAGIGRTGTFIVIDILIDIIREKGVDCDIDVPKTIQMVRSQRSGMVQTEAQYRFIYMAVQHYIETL

In the case of `NC[C@]1(c2ccccc2F)[C@@H]2CCN(c3cnc4c(-c5ccc(-c6nn[nH]n6)cc5Cl)n[nH]c4n3)C[C@@H]21` [Example 285, ((1S,6R,7R)-3-(3-(2-chloro-4-(2H-tetrazol-5-yl)phenyl)-1H-pyrazolo[3,4-b]pyrazin-6-yl)-7-(2-fluorophenyl)-3-azabicyclo[4.1.0]heptan-7-yl)methanamine], the IC50 was over 5000 nM in experiment [1] (Homo sapiens, KYSE-520, 2 h) and under 500 nM in experiment [2].
`Cc1nccc(Sc2cnc(N3CC[C@@H]4[C@H](C3)[C@@]4(CN)c3ccccc3F)cn2)c1F` [Example 423, ((1S,6R,7R)-3-(5-((3-fluoro-2-methylpyridin-4-yl)thio)pyrazin-2-yl)-7-(2-fluorophenyl)-3-azabicyclo[4.1.0]heptan-7-yl)methanamine]: the concentration for half-maximal inhibition (IC50) in experiment [1] (Homo sapiens, KYSE-520, 2 h) is over 5000 nM; in experiment [2] it was under 500 nM.
For `Cc1cc([C@@]2(CN)[C@@H]3CCN(c4cnc5c(-c6ccc7nn(C)c(Cl)c7c6Cl)n[nH]c5n4)C[C@@H]32)no1` [Example 44, ((1S,6R,7S)-3-(3-(3,4-dichloro-2-methyl-2H-indazol-5-yl)-1H-pyrazolo[3,4-b]pyrazin-6-yl)-7-(5-methylisoxazol-3-yl)-3-azabicyclo[4.1.0]heptan-7-yl)methanamine], the IC50 in experiment [1] (Homo sapiens, KYSE-520, 2 h) is under 1000 nM; in experiment [2], under 500 nM.
In the same order, the values of `Cc1c(-c2n[nH]c3nc(N4CC[C@@H]5[C@H](C4)[C@@]5(CN)c4ccccc4F)cnc23)ccc2[nH]c(=O)[nH]c12` [Example 259, 5-(6-((1S,6R,7R)-7-(aminomethyl)-7-(2-fluorophenyl)-3-azabicyclo[4.1.0]heptan-3-yl)-1H-pyrazolo[3,4-b]pyrazin-3-yl)-4-methyl-1,3-dihydro-2H-benzo[d]imidazol-2-one] are under 1000 nM and under 500 nM.
Consider `NC[C@]1(c2ccccc2F)[C@@H]2CCN(c3cnc4nc(-c5ccnc(-n6cccn6)c5)ccc4n3)C[C@@H]21` [Example 530, ((1S,6R,7R)-3-(6-(2-(1H-pyrazol-1-yl)pyridin-4-yl)pyrido[2,3-b]pyrazin-2-yl)-7-(2-fluorophenyl)-3-azabicyclo[4.1.0]heptan-7-yl)methanamine], for which the concentration for half-maximal inhibition (IC50) in experiment [1] (Homo sapiens, KYSE-520, 2 h) was over 5000 nM; in experiment [2] it was under 500 nM.
In the case of `NC[C@]1(c2ccccc2F)[C@@H]2CCN(c3cnc4c(C#Cc5ccccc5F)n[nH]c4n3)C[C@@H]21` [Example 334, ((1S,6R,7R)-7-(2-fluorophenyl)-3-(3-((2-fluorophenyl)ethynyl)-1H-pyrazolo[3,4-b]pyrazin-6-yl)-3-azabicyclo[4.1.0]heptan-7-yl)methanamine], the half-maximal inhibitory concentration (IC50) in experiment [1] (Homo sapiens, KYSE-520, 2 h) was under 1000 nM; in experiment [2], under 500 nM.
With `NC[C@]1(c2ccccc2F)[C@@H]2CCN(c3cnc4c(-c5ccc6nn(C7CC7)cc6c5Cl)n[nH]c4n3)C[C@@H]21` [Example 420], the IC50 was under 1000 nM in experiment [1] and under 500 nM in experiment [2].
For `NC[C@]1(c2ccccc2F)[C@@H]2CCN(c3cnc4c(-c5ccc(O)c(F)c5F)n[nH]c4n3)C[C@@H]21` [Example 374, 4-(6-((1S,6R,7R)-7-(aminomethyl)-7-(2-fluorophenyl)-3-azabicyclo[4.1.0]heptan-3-yl)-1H-pyrazolo[3,4-b]pyrazin-3-yl)-2,3-difluorophenol], the IC50 in experiment [1] (Homo sapiens, KYSE-520, 2 h) is under 1000 nM; in experiment [2] it was under 500 nM.
In the case of `NC[C@]1(c2ccccc2F)[C@@H]2CCN(c3cnc4nc(Sc5ccncc5)ccc4n3)C[C@@H]21` [Example 407, ((1S,6R,7R)-7-(2-fluorophenyl)-3-(6-(pyridin-4-ylthio)pyrido[2,3-b]pyrazin-2-yl)-3-azabicyclo[4.1.0]heptan-7-yl)methanamine], the IC50 in experiment [1] (Homo sapiens, KYSE-520, 2 h) is under 1000 nM; in experiment [2], under 500 nM.
Consider `NC[C@]1(c2ccccc2F)[C@@H]2CCN(c3cnc4c(-c5cc(Cl)c(C(N)=O)cc5F)n[nH]c4n3)C[C@@H]21` [Example 253, 4-(6-((1S,6R,7R)-7-(aminomethyl)-7-(2-fluorophenyl)-3-azabicyclo[4.1.0]heptan-3-yl)-1H-pyrazolo[3,4-b]pyrazin-3-yl)-2-chloro-5-fluorobenzamide], for which the half-maximal inhibitory concentration (IC50) in experiment [1] (Homo sapiens, KYSE-520, 2 h) is under 1000 nM; in experiment [2], under 500 nM.
As for `Cc1csc(C2(CN)C3CCN(c4cnc5c(-c6ccc(Cl)c7ncccc67)n[nH]c5n4)CC32)n1` (stereo not shown) [Example 442, (3-(3-(8-chloroquinolin-5-yl)-1H-pyrazolo[3,4-b]pyrazin-6-yl)-7-(4-methylthiazol-2-yl)-3-azabicyclo[4.1.0]heptan-7-yl)methanamine], the IC50 in experiment [1] (Homo sapiens, KYSE-520, 2 h) was under 1000 nM; in experiment [2], under 500 nM.
In the case of `NC[C@]1(c2ccccc2F)[C@@H]2CCN(c3cnc4c(-c5ccc6[nH]c(=O)[nH]c6c5Cl)n[nH]c4n3)C[C@@H]21` [Example 302], the 50% inhibitory concentration (IC50) was under 1000 nM in experiment [1] and under 500 nM in experiment [2].
On to `NC[C@@]1(c2ccccc2F)C2CCN(c3ccc4nc(Sc5ccnc(N)c5Cl)ccc4n3)CC21` (stereo in doubt) [Example 387, 4-((6-((1R,6S,7S)-7-(aminomethyl)-7-(2-fluorophenyl)-3-azabicyclo[4.1.0]heptan-3-yl)-1,5-naphthyridin-2-yl)thio)-3-chloropyridin-2-amine], for which the concentration for half-maximal inhibition (IC50) in experiment [1] (Homo sapiens, KYSE-520, 2 h) is under 1000 nM; in experiment [2], under 500 nM.
For the molecule `Cc1csc([C@@]2(CN)[C@@H]3CN(c4nc5[nH]cc(-c6ccc7nn(C)cc7c6Cl)c5c(=O)n4C)C[C@@H]32)n1` [Example 473, 2-((1R,5S,6r)-6-(aminomethyl)-6-(4-methylthiazol-2-yl)-3-azabicyclo[3.1.0]hexan-3-yl)-5-(4-chloro-2-methyl-2H-indazol-5-yl)-3-methyl-3,7-dihydro-4H-pyrrolo[2,3-d]pyrimidin-4-one], the concentration for half-maximal inhibition (IC50) is under 1000 nM in experiment [1] (Homo sapiens, KYSE-520, 2 h) and under 500 nM in experiment [2].
On to `NC[C@]1(c2ccccc2F)[C@@H]2CCN(c3cnc4c(-c5cc(F)c(CO)c(F)c5)n[nH]c4n3)C[C@@H]21` [Example 381, (4-(6-((1S,6R,7R)-7-(aminomethyl)-7-(2-fluorophenyl)-3-azabicyclo[4.1.0]heptan-3-yl)-1H-pyrazolo[3,4-b]pyrazin-3-yl)-2,6-difluorophenyl)methanol], for which the half-maximal inhibitory concentration (IC50) was over 5000 nM in experiment [1] (Homo sapiens, KYSE-520, 2 h) and under 500 nM in experiment [2].
Regarding `NC[C@]1(c2ccccc2F)[C@@H]2CCN(c3cnc4c(-c5ccc6c(c5Cl)CC(=O)N6)n[nH]c4n3)C[C@@H]21` [Example 216, 5-(6-((1S,6R,7R)-7-(aminomethyl)-7-(2-fluorophenyl)-3-azabicyclo[4.1.0]heptan-3-yl)-1H-pyrazolo[3,4-b]pyrazin-3-yl)-4-chloroindolin-2-one], the IC50 was under 1000 nM in experiment [1] (Homo sapiens, KYSE-520, 2 h) and under 500 nM in experiment [2].
Consider `Cn1cc2cc(-c3ccc4nc(N5CC[C@H]6[C@@H](C5)[C@]6(CN)c5ccccc5F)ccc4n3)ccc2n1` [Example 394, ((1R,6S,7S)-7-(2-fluorophenyl)-3-(6-(2-methyl-2H-indazol-5-yl)-1,5-naphthyridin-2-yl)-3-azabicyclo[4.1.0]heptan-7-yl)methanamine], for which the concentration for half-maximal inhibition (IC50) was under 1000 nM in experiment [1] (Homo sapiens, KYSE-520, 2 h) and over 3000 nM in experiment [2].
Turning to `Cc1csc([C@@]2(CN)[C@@H]3CN(c4nc5[nH]nc(-c6ccc7nc(C)sc7c6Cl)c5c(=O)n4C)C[C@@H]32)n1` [Example 469, 6-((1R,5S,6r)-6-(aminomethyl)-6-(4-methylthiazol-2-yl)-3-azabicyclo[3.1.0]hexan-3-yl)-3-(7-chloro-2-methylbenzo[d]thiazol-6-yl)-5-methyl-1,5-dihydro-4H-pyrazolo[3,4-d]pyrimidin-4-one], the IC50 in experiment [1] (Homo sapiens, KYSE-520, 2 h) is under 1000 nM; in experiment [2], under 500 nM.
Taken in the same sequence, the figures for `Cc1cc(C(N)=O)ccc1-c1n[nH]c2nc(N3CC[C@@H]4[C@H](C3)[C@@]4(CN)c3ccccc3F)cnc12` [Example 250, 4-(6-((1S,6R,7R)-7-(aminomethyl)-7-(2-fluorophenyl)-3-azabicyclo[4.1.0]heptan-3-yl)-1H-pyrazolo[3,4-b]pyrazin-3-yl)-3-methylbenzamide] were under 1000 nM and under 500 nM.
For `NC[C@]1(c2ccccc2F)[C@@H]2CCN(c3cnc4c(-c5ccc(C(=O)O)cc5Cl)n[nH]c4n3)C[C@@H]21` [Example 271, 4-(6-((1S,6R,7R)-7-(aminomethyl)-7-(2-fluorophenyl)-3-azabicyclo[4.1.0]heptan-3-yl)-1H-pyrazolo[3,4-b]pyrazin-3-yl)-3-chlorobenzoic acid], the 50% inhibitory concentration (IC50) in experiment [1] (Homo sapiens, KYSE-520, 2 h) is over 5000 nM; in experiment [2] it was under 500 nM.
As to `NC[C@]1(c2ccccc2F)[C@@H]2CCN(c3cnc4c(-c5ccc(OC(F)F)c6ncccc56)n[nH]c4n3)C[C@@H]21` [Example 160, ((1S,6R,7R)-3-(3-(8-(difluoromethoxy)quinolin-5-yl)-1H-pyrazolo[3,4-b]pyrazin-6-yl)-7-(2-fluorophenyl)-3-azabicyclo[4.1.0]heptan-7-yl)methanamine], the IC50 was under 1000 nM in experiment [1] (Homo sapiens, KYSE-520, 2 h) and under 500 nM in experiment [2].
Regarding `NC[C@]1(c2ccccc2)[C@@H]2CN(c3cnc4c(-c5cccc(Cl)c5Cl)n[nH]c4n3)C[C@@H]21` [Example 452, ((1R,5S,6s)-3-(3-(2,3-dichlorophenyl)-1H-pyrazolo[3,4-b]pyrazin-6-yl)-6-phenyl-3-azabicyclo[3.1.0]hexan-6-yl)methanamine], the IC50 is under 1000 nM in experiment [1] (Homo sapiens, KYSE-520, 2 h) and under 500 nM in experiment [2].
Turning to `NC[C@]1(c2ccccc2F)[C@@H]2CCN(c3cnc4c(-c5ccc6c(cnn6C6CC6)c5Cl)n[nH]c4n3)C[C@@H]21` [Example 413], the IC50 was under 1000 nM in experiment [1] and under 500 nM in experiment [2].
